Results taken from patent publication US6391309B1, “Method of preparing and using isoflavones for the treatment of female symptoms” (Archer Daniesl Midland Company, priority 1996, dated 2002).

Experiments:
[1] = Solubility of isoflavones in distilled water at 37° C., HPLC after filtration; type: physicochemical; conditions: 0.02% in distilled water, 17 hours, 0.2 micron filter
Method: Separate solutions (0.02% in distilled water) were made for genistein, genistin, daidzein, daidzin and isoflavone concentrate in volumetric flasks. Samples were then placed in a 37° C. water bath for 17 hours, followed by rapid filtration through a 0.2 micron syringe-type filter to remove particulates. Filtered samples were then analyzed for isoflavone concentration by HPLC.

LNCaP cells = assay: In vitro secretion of PSA by LNCaP cells into media; type: cell-based
Method: PSA concentrations were reduced 68% and 74% by 25 and 50 μM of genistein treatment respectively, and 31% and 42% by 25 and 50 μM of soy phytochemical concentrate treatment respectively.

| Genistein concentration in solution (solubility) [1] [ppm] | SMILES | Daidzin concentration in solution (solubility) [1] [ppm] | PSA concentration reduced (LNCaP cells; 25 μM) [%] | PSA concentration reduced (LNCaP cells; 50 μM) [%] |
| --- | --- | --- | --- | --- |
|  | O=c1c(-c2ccc(O)cc2)coc2cc(O[C@@H]3O[C@H](CO)[C@@H](O)[C@H](O)[C@H]3O)ccc12 [daidzin] | 48.51 |  |  |
| 7.42 | O=c1c(-c2ccc(O)cc2)coc2cc(O)cc(O)c12 [genistein] |  | 68 | 74 |
